According to paper PMC10027976, “Phylogeny-guided genome mining of roseocin family lantibiotics to generate improved variants of roseocin” (AMB Express, 2023):
Where no end group is shown, it is not given here.

Experiments:
M. luteus ATCC 10240 [1] = assay: MIC by micro broth-dilution method; type: cell-based, Micrococcus luteus; conditions: for MIC against M. luteus ATCC 10240: micro broth-dilution, Mueller Hinton Broth, 2 × 10^5 CFU/mL mixed 1:1 with lantibiotic, BSA-treated 96-well plates, overnight 37 °C, lowest concentration with no visible growth, Rosα (variant) with wild-type Rosβ
Method: (§1) The minimum inhibitory concentration of wild-type roseocin and its variants was determined with micro broth-dilution method. Sterile 96-well microtiter plates were treated with 200 µL of 1% (w/v) bovine serum albumin (BSA) in 1 × phosphate-buffered saline (PBS) solution at 37 °C for 30 min. After this, wells were washed with 1 × PBS to remove excess BSA (Ellis et al. [2020]). Log phase culture was diluted with Mueller Hinton Broth (MHB) to obtain 2 × 10^5 CFU/mL. The bacterial suspension and the lantibiotic were added to 96-well microplates at a ratio of 1:1. The microplates were incubated overnight at 37 °C. The lowest concentration at which no visible growth was observed, was considered MIC.

MSSA ATCC 25923 = assay: MIC by micro broth-dilution method; type: cell-based, Staphylococcus aureus; conditions: for MIC against MSSA ATCC 25923: micro broth-dilution, Mueller Hinton Broth, 2 × 10^5 CFU/mL mixed 1:1 with lantibiotic, BSA-treated 96-well plates, overnight 37 °C, lowest concentration with no visible growth, Rosα (variant) with wild-type Rosβ
Method: as §1

[2] = test system: M. luteus ATCC 10240 and methicillin-sensitive Staphylococcus aureus (MSSA) ATCC 25923; assay: MIC comparison of variants with wild-type roseocin, both strains; type: cell-based, Micrococcus luteus; Staphylococcus aureus; conditions: M. luteus ATCC 10240 and MSSA ATCC 25923, in combination with wild-type Rosβ
Method: as §1

M. luteus ATCC 10240 [3] = assay: Agar diffusion assay in synergism with Rosβ; type: cell-based, Micrococcus luteus; conditions: nutrient agar, leader removed with proteinase K, 4 μg, 2 μg and 1 μg with equal amount of Rosβ
Method: Overnight 10 mL culture of Micrococcus luteus (ATCC 10240), grown in nutrient broth, was diluted to 0.1 OD600 in the fresh 5 mL nutrient broth. The 1 μL/mL of the culture was used for the inoculation in nutrient agar before plating. The culture was added in bearable to touch media. The nutrient agar culture plates were used for checking the activity of Rosα variant peptides and wild type as a positive control, in synergism with Rosβ in a 1:1 ratio.
Alpha variant precursor peptides were cleaved with proteinase K to obtain their bioactive form, as described earlier (Singh et al. 2020) and were spotted with Rosβ in nutrient agar culture plate, in a dose-dependent manner i.e 1 µg, 2 µg, 4 µg (each).

[4] = compared with wild-type Rosα, in combination with wild-type Rosβ

Substance | Fold change of MIC against M. luteus ATCC 10240 relative to wild-type (M. luteus ATCC 10240 [1]; [4]) | MIC against M. luteus ATCC 10240 (M. luteus ATCC 10240 [1]) | MIC against MSSA ATCC 25923 (MSSA ATCC 25923) | Change of MIC / inhibitory activity relative to wild-type roseocin (in words) [2] | Change of MIC / inhibitory activity relative to wild-type roseocin (in words) ([2]; listed as RosαL8W) | Fold change of MIC against MSSA ATCC 25923 relative to wild-type (MSSA ATCC 25923; [4]) | Zone of inhibition compared to wild type Rosα (M. luteus ATCC 10240 [3]) | Change of MIC / inhibitory activity relative to wild-type roseocin (in words) ([2]; listed as RosαL8F)
GAGSGVLGTWGCCSCLPWYSGWTVCGLACNPGKPCKN (also: bicyclic or more (positions not given here)) [Roseocin L8W, Rosα variant L8W, modified by RosM, tested in combination with wild-type Rosβ] | two-fold lower MIC | 0.25 µM | 2 µM | improvement in the MIC | significantly improved inhibitory activity |  |  | 
INGAGSGVLGTLGCCSCLPWYSGWTVCGLACNPGKPCKN (also: bicyclic or more (positions not given here)) [Roseocin (wild-type)] |  | 0.5 µM | 2 µM |  |  |  |  | 
NGAGSGVLGTFGCCSCLPWYSGWTVCGLACNPGKPCKN (also: bicyclic or more (positions not given here)) [Roseocin L8F, Rosα variant L8F, modified by RosM, tested in combination with wild-type Rosβ] |  | 0.5 µM | 0.5 µM | improvement in the MIC |  | four-fold lower MIC | improved significantly | significantly improved inhibitory activity
NGAGSGVLGTLGCCSCLPWYSGWTQCGLACNPGKPCKN (also: bicyclic or more (positions not given here)) [Roseocin V22Q, Rosα variant V22Q, modified by RosM, tested in combination with wild-type Rosβ] |  | > 8 µM | > 16 µM | loss of potency |  |  |  | 
NGAGSGVLGTLGCCWCLPWYSGWTVCGLACNPGKPCKN (also: bicyclic or more (positions not given here)) [Roseocin S12W, Rosα variant S12W, modified by RosM, tested in combination with wild-type Rosβ] |  | 0.5 µM | > 16 µM | no improvement |  |  |  | 
Nisin [reference compound] |  | 0.0625 µM | 2 µM |  |  |  |  | 
